US20250302039A1, “USE OF N-SUBSTITUTED PYRROLIDONES TO PROMOTE THE PENETRATION OF AGROCHEMICAL ACTIVE AGENTS” (priority 2016, published 2025)

Tests used:
Type in all cases: physicochemical
[1] = Miscibility of N-(n-butyl)-2-pyrrolidone with solvents; settings: with water, propylene glycol, polyethylene glycol, dimethylamide, Solvesso® 200 ND, alkylated vegetable oil or mineral oils
Text: In addition, the N-substituted pyrrolidones of the formula (I) can also be combined advantageously with various water-immiscible solvents and may serve as cosolvents in solvent-containing formulations, for example in emulsion concentrates (EC), oil dispersions (OD), suspoemulsions (SE) and microemulsions (ME).

[2] = Solutions of active ingredients in N-(n-butyl)-2-pyrrolidone; settings: solvent N-(n-butyl)-2-pyrrolidone; based on the total weight of the solution
[3] = Microscopy studies: crystallization behavior after 18 hours of drying; settings: 1 g/L; 1 μL on silanized glass slide; 18 hours of drying at 25° C., 53% relative air humidity; 400× magnification
Text: The following solutions 1) to 6) were produced:
Solution of 1 g of rynaxypyr in one liter of a mixture of acetone and distilled water at a weight ratio of acetone:distilled water of 30:70.
Solution of 1 g of rynaxypyr in one liter of a mixture of N-(n-butyl)-2-pyrrolidone and distilled water at a weight ratio of N-(n-butyl)-2-pyrrolidone:distilled water of 30:70.
Solution of 1 g of emamectin benzoate in one liter of a mixture of acetone and distilled water at a weight ratio of acetone:distilled water of 30:70.
Solution of 1 g of emamectin benzoate in one liter of a mixture of N-(n-butyl)-2-pyrrolidone and distilled water at a weight ratio of N-(n-butyl)-2-pyrrolidone:distilled water of 30:70.
Solution of 1 g of abamectin in one liter of a mixture of acetone and distilled water at a weight ratio of acetone:distilled water of 30:70.
Solution of 1 g of abamectin in one liter of a mixture of N-(n-butyl)-2-pyrrolidone and distilled water at a weight ratio of N-(n-butyl)-2-pyrrolidone:distilled water of 30:70.
The procedure as described hereinafter was followed with solutions 1) to 6) (see steps A) to C)): • A) 1 μL of the above-described solutions 1) to 6) in each case was applied to silanized glass microscope slides. • B) The solutions were left to stand on the microscope slides at a temperature of 25° C. and 53% relative air humidity over 18 hours, in the course of which drying took place. • C) Thereafter, the microscope slides were assessed and photos were taken at the original edge of the droplets with 400-fold magnification.
The photos for the active agrochemical ingredient abamectin are shown in FIG. 2A and FIG. 2B, those for the active agrochemical ingredient rynaxapyr in FIG. 3A and FIG. 3B, and those for the active agrochemical ingredient emamectin benzoate in FIG. 4A and FIG. 4B.

| Compound | miscibility with solvents [1] | amount of active ingredient in solutions prepared with N-(n-butyl)-2-pyrrolidone [2] | crystallization behavior in N-(n-butyl)-2-pyrrolidone/water (30:70) solution [3] | crystallization behavior in acetone/water (30:70) solution [3] |
| --- | --- | --- | --- | --- |
| CCCCN1CCCC1=O [N-(n-Butyl)-2-pyrrolidone, N-(n-butyl)-2-pyrrolidone] | miscible in all ratios | – | – | – |
| OC(Cc1ccccc1Cl)(Cn1nc[nH]c1=S)C1(Cl)CC1 (centres unmarked) [prothioconazole] | – | greater than 35 % by weight | – | – |
| CNC(=O)c1cc(Cl)cc(C)c1NC(=O)c1cc(Br)nn1-c1ncccc1Cl [rynaxypyr] | – | – | remaining dissolved | crystallized out |
| abamectin | – | – | remaining dissolved | crystallized out |
| emamectin benzoate | – | – | remaining dissolved | crystallized out |
